What was measured:
[1] = solubility of the API in MeOH; assay type: physicochemical; conditions: 20° C.
Method: The solubility at 20° C. of the API in MeOH was determined as follows: approximately 50 mg Levothyroxine sodium were weighed in a vial. Methanol was gradually added until the solution became clear.

[2] = LVX solubility in DCM/MeOH 10/3 with PLGA (evaluation of maximum theoretical drug loading); assay type: physicochemical
Method: A quantity of approximately 0.25 g of polymer and varying quantities of LVX corresponding to theoretical drug loading values 1%, 2%, 3% and 4% were weighed in four vials. A DCM/MeOH mixture at a ratio of 10/3 (to ensure the polymer is always dissolved) was gradually added in each vial. The respective PLGA (PURASORB PDLG 5002A) concentrations, % LVX content and LVX solubility were evaluated and are presented in the table below.

solubility in MeOH [1]: 3.41 % mass LVX/mass of MeOH
ratio LVX/(DCM+MeOH) at which levothyroxine is dissolved ([2]; DCM/MeOH 10/3 with PLGA): below 0.1%
LVX Solubility ([2]; Vial 1, 1.0% TDL, DCM+MeOH 2.5 g, 0.11% LVX in mix, 13.01% PLGA in DCM): Insoluble
LVX Solubility ([2]; Vial 1, 1.0% TDL, DCM+MeOH 3.3 g, 0.08% LVX in mix, 9.99% PLGA in DCM): Almost Clear
LVX Solubility ([2]; Vial 1, 1.0% TDL, DCM+MeOH 4.3 g, 0.06% LVX in mix, 7.63% PLGA in DCM): Clear
LVX Solubility ([2]; Vial 1, 1.0% TDL, DCM+MeOH 5.5 g, 0.05% LVX in mix, 5.92% PLGA in DCM): Clear
LVX Solubility ([2]; Vial 2, 2.0% TDL, DCM+MeOH 2.6 g, 0.20% LVX in mix, 12.58% PLGA in DCM): Slurry
LVX Solubility ([2]; Vial 2, 2.0% TDL, DCM+MeOH 3.3 g, 0.16% LVX in mix, 10.05% PLGA in DCM): Sluny
LVX Solubility ([2]; Vial 2, 2.0% TDL, DCM+MeOH 4.3 g, 0.12% LVX in mix, 7.69% PLGA in DCM): Less Slurry
LVX Solubility ([2]; Vial 2, 2.0% TDL, DCM+MeOH 5.6 g, 0.09% LVX in mix, 5.92% PLGA in DCM): Almost Clear
LVX Solubility ([2]; Vial 3, 3.0% TDL, DCM+MeOH 2.6 g, 0.30% LVX in mix, 12.69% PLGA in DCM): Shary
LVX Solubility ([2]; Vial 3, 3.0% TDL, DCM+MeOH 3.3 g, 0.24% LVX in mix, 9.97% PLGA in DCM): Slurry
LVX Solubility ([2]; Vial 3, 3.0% TDL, DCM+MeOH 4.2 g, 0.18% LVX in mix, 7.70% PLGA in DCM): Less Shury
LVX Solubility ([2]; Vial 3, 3.0% TDL, DCM+MeOH 5.5 g, 0.14% LVX in mix, 5.95% PLGA in DCM): Less Slurry
LVX Solubility ([2]; Vial 3, 3.0% TDL, DCM+MeOH 7.7 g, 0.10% LVX in mix, 4.25% PLGA in DCM): Almost Clear
LVX Solubility ([2]; Vial 3, 3.0% TDL, DCM+MeOH 9.6 g, 0.08% LVX in mix, 3.39% PLGA in DCM): Almost Clear
LVX Solubility ([2]; Vial 3, 3.0% TDL, DCM+MeOH 12.3 g, 0.06% LVX in mix, 2.65% PLGA in DCM): Clear
LVX Solubility ([2]; Vial 4, 4.0% TDL, DCM+MeOH 2.6 g, 0.39% LVX in mix, 12.33% PLGA in DCM): Slurry
LVX Solubility ([2]; Vial 4, 4.0% TDL, DCM+MeOH 3.3 g, 0.31% LVX in mix, 9.82% PLGA in DCM): Shary
LVX Solubility ([2]; Vial 4, 4.0% TDL, DCM+MeOH 4.3 g, 0.24% LVX in mix, 7.56% PLGA in DCM): Slurry
LVX Solubility ([2]; Vial 4, 4.0% TDL, DCM+MeOH 5.6 g, 0.19% LVX in mix, 5.87% PLGA in DCM): Less Slurry
SMILES: N[C@@H](Cc1cc(I)c(Oc2cc(I)c(O)c(I)c2)c(I)c1)C(=O)O [Levothyroxine sodium]
